The record followed here is patent publication US11780821B2, “Inhibitors of fibroblast activation protein” (Praxis Biotech LLC, priority 2017, dated 2023).

pIC50: −log10 of the molar value. Counter-ions that a name gives are not always drawn. Like-named read-outs stand apart in the source and are kept apart here. Where only a bound is given, the exact number is not on record here.

The term pIC50 denotes −log10 of the IC50, conventionally taken in molar units.

Type in all cases: biochemical
The target in experiment [1] is T1, recombinant human FAPα (rhFAPα) (Homo sapiens, UniProt Q12884).
T1 construct: purchased R&S system (so in the source)
T1 sequence (Q12884 1-760): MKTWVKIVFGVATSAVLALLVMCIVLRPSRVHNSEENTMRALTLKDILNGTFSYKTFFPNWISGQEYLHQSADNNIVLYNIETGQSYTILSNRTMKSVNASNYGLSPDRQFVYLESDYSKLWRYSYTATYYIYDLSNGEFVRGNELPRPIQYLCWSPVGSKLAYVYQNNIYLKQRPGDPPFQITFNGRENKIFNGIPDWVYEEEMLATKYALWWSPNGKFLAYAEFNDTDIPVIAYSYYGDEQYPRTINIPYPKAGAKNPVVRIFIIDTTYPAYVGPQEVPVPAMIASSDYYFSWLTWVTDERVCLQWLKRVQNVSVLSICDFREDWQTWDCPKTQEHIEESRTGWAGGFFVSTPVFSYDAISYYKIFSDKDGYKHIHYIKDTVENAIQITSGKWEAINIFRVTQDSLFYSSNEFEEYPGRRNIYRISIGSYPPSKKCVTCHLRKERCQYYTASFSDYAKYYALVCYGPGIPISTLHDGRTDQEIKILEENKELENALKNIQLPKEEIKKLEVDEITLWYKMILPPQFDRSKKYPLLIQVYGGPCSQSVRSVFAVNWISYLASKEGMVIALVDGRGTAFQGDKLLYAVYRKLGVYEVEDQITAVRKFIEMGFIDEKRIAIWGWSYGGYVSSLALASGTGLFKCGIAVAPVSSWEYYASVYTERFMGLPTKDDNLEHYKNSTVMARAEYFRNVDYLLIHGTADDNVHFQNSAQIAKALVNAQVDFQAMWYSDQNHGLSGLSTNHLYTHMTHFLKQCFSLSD
The experiment in a line: FAPα enzymatic exopeptidase (dipeptidase) activity assay. The following applies: for inhibition at 1 µM: 1 μM test compound, Z-Gly-Pro-AMC substrate, read-out: rhFAPα (% exo inh @ 1 μM); for pIC50: exopeptidase, read-out: rhFAPα (exo IC50).

The target of experiment [2] is T2, recombinant human DPPIV (rhDPPIV) (Homo sapiens, UniProt P27487).
T2 construct: purchased R&S system (so in the source)
T2 sequence (P27487 whole entry): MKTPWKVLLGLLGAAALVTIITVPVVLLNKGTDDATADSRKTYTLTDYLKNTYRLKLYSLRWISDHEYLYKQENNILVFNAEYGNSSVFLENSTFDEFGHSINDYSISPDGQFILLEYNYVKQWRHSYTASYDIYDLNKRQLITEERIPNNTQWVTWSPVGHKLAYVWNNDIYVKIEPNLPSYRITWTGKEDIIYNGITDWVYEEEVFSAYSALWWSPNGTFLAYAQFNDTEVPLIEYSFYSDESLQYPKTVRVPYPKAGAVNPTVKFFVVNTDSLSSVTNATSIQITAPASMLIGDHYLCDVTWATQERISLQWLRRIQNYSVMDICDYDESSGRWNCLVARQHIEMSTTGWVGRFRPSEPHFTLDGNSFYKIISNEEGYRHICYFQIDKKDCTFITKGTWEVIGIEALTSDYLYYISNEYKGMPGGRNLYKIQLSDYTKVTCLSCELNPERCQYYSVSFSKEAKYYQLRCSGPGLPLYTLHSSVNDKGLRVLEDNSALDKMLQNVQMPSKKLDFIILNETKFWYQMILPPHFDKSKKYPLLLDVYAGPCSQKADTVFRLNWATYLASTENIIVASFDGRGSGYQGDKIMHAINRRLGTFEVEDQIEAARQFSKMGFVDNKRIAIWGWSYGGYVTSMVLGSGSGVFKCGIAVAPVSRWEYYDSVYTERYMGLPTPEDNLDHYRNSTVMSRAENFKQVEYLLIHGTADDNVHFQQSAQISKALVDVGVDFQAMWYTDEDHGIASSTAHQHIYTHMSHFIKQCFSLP
The experiment in a line: DPPIV enzymatic activity assay. The following applies: H-Gly-Pro-pNA substrate.

The target of experiment [3] is T3, recombinant human PREP (rhPREP) (Homo sapiens, UniProt P48147).
T3 sequence (P48147 1-710): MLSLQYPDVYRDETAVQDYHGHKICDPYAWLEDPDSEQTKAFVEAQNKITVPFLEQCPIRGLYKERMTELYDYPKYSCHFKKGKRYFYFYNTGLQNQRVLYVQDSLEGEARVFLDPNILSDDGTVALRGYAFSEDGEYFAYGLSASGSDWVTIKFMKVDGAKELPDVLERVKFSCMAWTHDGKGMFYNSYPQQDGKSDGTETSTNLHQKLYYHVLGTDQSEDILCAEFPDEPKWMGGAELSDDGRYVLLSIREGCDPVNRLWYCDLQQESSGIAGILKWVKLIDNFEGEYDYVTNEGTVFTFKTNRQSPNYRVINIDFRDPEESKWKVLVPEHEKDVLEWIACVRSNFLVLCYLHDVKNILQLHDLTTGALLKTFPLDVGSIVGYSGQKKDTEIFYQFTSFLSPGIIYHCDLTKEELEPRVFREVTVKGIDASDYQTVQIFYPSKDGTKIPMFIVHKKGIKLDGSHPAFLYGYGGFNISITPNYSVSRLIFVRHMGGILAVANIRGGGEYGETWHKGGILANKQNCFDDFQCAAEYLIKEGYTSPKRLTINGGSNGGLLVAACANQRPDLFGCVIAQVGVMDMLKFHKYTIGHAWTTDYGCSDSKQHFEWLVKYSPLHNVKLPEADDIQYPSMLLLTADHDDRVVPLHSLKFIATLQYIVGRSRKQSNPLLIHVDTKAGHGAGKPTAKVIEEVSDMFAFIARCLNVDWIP
Briefly: PREP enzymatic activity assay. As to conditions: Z-Gly-Pro-AMC substrate. How it is done:
(§1) 7-Amino-4-Methylcoumarin (AMC) release was detected by measuring fluorescence at Ex/Em 380/460 nm using a Multifunction Microplate Reader (Synergy 4, Biotek). All measurements were carried out in triplicate.

Experiment [4] deals with T4, recombinant human DPP9 (rhDPP9) (Homo sapiens, UniProt Q86TI2).
T4 construct: purchased R&S system (so in the source)
T4 sequence (Q86TI2 whole entry): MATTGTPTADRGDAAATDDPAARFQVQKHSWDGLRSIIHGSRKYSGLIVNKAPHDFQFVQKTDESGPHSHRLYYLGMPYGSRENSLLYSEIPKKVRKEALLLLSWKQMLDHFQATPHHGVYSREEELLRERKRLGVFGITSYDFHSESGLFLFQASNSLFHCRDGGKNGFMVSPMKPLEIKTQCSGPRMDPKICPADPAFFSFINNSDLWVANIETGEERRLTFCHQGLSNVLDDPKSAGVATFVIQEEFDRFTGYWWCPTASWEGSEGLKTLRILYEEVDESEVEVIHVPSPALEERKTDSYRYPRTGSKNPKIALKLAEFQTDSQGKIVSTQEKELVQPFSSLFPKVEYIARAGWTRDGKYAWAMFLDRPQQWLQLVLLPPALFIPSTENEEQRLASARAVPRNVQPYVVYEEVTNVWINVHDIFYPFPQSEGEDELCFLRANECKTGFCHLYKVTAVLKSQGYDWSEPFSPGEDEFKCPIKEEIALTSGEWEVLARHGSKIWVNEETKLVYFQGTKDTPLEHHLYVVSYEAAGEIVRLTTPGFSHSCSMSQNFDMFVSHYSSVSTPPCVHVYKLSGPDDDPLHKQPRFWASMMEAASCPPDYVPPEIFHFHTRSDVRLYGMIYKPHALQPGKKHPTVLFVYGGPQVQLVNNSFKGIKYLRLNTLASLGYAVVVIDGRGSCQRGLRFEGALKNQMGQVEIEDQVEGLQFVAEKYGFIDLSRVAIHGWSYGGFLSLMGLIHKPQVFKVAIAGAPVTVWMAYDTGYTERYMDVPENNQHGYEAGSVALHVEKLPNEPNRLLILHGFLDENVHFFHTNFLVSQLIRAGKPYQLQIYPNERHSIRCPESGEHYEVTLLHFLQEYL
Briefly: DPP9 enzymatic activity assay. The following applies: H-Gly-Pro-AMC substrate. How it is done: as §1

Another experiment has as its target T5, mouse plasma DPPIV (Mus musculus, UniProt P28843).
T5 construct: from tissue; host or cells: mouse plasma (C57BL/6, EDTA)
Briefly: DPPIV enzymatic activity in mouse plasma. The following applies: C57BL/6 mouse plasma; H-Gly-Pro-AMC substrate. The method, then: Approximately 500 μL of whole blood from one C57BL/6 mouse was harvested into BD Microtainer® tubes (K2) EDTA (#365974, Becton Dickinson and Co.) via terminal cardiac puncture. The blood sample was immediately centrifuged at approximately 9000 g at 4° C. for 5 minutes. Plasma was separated and stored at −80° C. in aliquots of 300 μL. To assay baseline DPPIV enzymatic exopeptidase activity, 5 μL of thawed, mouse plasma was diluted (1:5) in buffer (100 mM Tris-HCl, 400 mM NaCl, 50 mM salicylic acid, 1 mM EDTA, pH 7.5) and mixed with 35 µL of the same buffer before being pre-incubated with different concentrations of 10 μL of test compounds or DMSO vehicle for 15 minutes at 37° C. in 96-well black plates (Nunc, #237108). After pre-incubation, 50 μL of 200 μM dipeptide substrate H-Gly-Pro-AMC (Bachem, #L-1225) was added to the mixture. The assay was performed for 1 hour at 37° C. 7-Amino-4-Methylcoumarin (AMC) release was detected measuring fluorescence at an excitation wavelength of 360 nm and an emission wavelength of 460 nm using a Multifunction Microplate Reader (Synergy 4, Biotek). All measurements were carried out at least in duplicate.

T5 sequence (P28843 37-760 limits assumed): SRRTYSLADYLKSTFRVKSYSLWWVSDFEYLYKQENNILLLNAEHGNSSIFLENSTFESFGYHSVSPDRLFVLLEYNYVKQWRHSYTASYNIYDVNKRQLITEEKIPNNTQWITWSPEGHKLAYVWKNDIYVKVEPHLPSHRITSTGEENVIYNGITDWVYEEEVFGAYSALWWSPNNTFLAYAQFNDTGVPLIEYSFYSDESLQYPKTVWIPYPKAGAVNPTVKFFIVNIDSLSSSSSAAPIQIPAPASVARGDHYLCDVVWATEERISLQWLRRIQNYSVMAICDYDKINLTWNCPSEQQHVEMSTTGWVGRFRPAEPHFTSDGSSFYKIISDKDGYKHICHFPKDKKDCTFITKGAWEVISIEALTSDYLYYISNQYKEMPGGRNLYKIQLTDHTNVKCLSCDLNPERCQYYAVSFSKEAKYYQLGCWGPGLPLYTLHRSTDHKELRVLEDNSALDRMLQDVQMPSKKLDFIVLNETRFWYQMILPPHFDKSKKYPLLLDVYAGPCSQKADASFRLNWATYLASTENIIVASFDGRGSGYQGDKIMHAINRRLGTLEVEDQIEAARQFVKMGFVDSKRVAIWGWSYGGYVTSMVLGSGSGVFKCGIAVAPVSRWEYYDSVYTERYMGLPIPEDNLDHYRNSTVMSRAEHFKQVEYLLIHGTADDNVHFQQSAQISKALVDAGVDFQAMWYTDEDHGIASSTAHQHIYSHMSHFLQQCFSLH

Regarding `N#C[C@@H]1CC(F)(F)CN1C(=O)CNC(=O)c1ccncc1-c1ccc(N)nc1` [Compound 107, (S)-6′-amino-N-(2-(2-cyano-4,4-difluoropyrrolidin-1-yl)-2-oxoethyl)-[3,3′-bipyridine]-4-carboxamide formate], in experiment [1], the inhibition at 1 µM is greater than 50%. For the same compound, the pIC50 in experiment [1] (Table 2, Z-Gly-Pro-AMC) is greater than 6.00; in experiment [1] (Table 3), greater than 6.00; in experiment [2] it was 5.00 to 6.00; in experiment [3], less than 5.00; in experiment [4], 5.00 to 6.00.
As to `Cc1noc(C)c1-c1cnccc1C(=O)NCC(=O)N1CC(F)(F)C[C@H]1C#N` [Compound 110, (S)—N-(2-(2-cyano-4,4-difluoropyrrolidin-1-yl)-2-oxoethyl)-3-(3,5-dimethylisoxazol-4-yl)isonicotinamide], in experiment [1], the inhibition at 1 µM was greater than 50%. Besides, the pIC50 is greater than 6.00 in experiment [1] (Table 2, Z-Gly-Pro-AMC); greater than 6.00 in experiment [1] (Table 3); less than 5.00 in experiment [2]; less than 5.00 in experiment [3]; less than 5.00 in experiment [4].
In the case of `CC(C)(C)c1cccc(-c2cnccc2C(=O)NCC(=O)N2CC(F)(F)C[C@H]2C#N)c1` [Compound 112, (S)-3-(3-(tert-butyl)phenyl)-N-(2-(2-cyano-4,4-difluoropyrrolidin-1-yl)-2-oxoethyl)isonicotinamide], in experiment [1], the inhibition at 1 µM was greater than 50%. Besides, the pIC50 in experiment [1] (Table 2, Z-Gly-Pro-AMC) is greater than 6.00; in experiment [1] (Table 3) it was greater than 6.00; in experiment [2], less than 5.00; in experiment [3] it was less than 5.00; in experiment [4], less than 5.00.
As for `CCOc1cnccc1C(=O)NCC(=O)N1CC(F)(F)C[C@H]1C#N` [Compound 113, (S)—N-(2-(2-cyano-4,4-difluoropyrrolidin-1-yl)-2-oxoethyl)-3-ethoxyisonicotinamide], the inhibition at 1 µM in experiment [1] was greater than 50%. In addition, the pIC50 was greater than 6.00 in experiment [1] (Table 2, Z-Gly-Pro-AMC); greater than 6.00 in experiment [1] (Table 3); less than 5.00 in experiment [2]; less than 5.00 in experiment [3]; less than 5.00 in experiment [4].
On to `N#C[C@@H]1CC(F)(F)CN1C(=O)CNC(=O)c1ccncc1Nc1ccc(F)cc1` [Compound 114, (S)—N-(2-(2-cyano-4,4-difluoropyrrolidin-1-yl)-2-oxoethyl)-3-((4-fluorophenyl)amino)isonicotinamide 2,2,2-trifluoroacetate], for which the inhibition at 1 µM in experiment [1] was greater than 50%. Moreover, the pIC50 in experiment [1] (Table 2, Z-Gly-Pro-AMC) is greater than 6.00; in experiment [1] (Table 3), greater than 6.00; in experiment [2], less than 5.00; in experiment [3] it was less than 5.00; in experiment [4] it was less than 5.00.
`N#C[C@@H]1CC(F)(F)CN1C(=O)CNC(=O)c1ccncc1Sc1ccccc1` [Compound 115, (S)—N-(2-(2-cyano-4,4-difluoropyrrolidin-1-yl)-2-oxoethyl)-3-(phenylthio)isonicotinamide]: the inhibition at 1 µM in experiment [1] is greater than 50%. Besides, the negative logarithm of the IC50 (pIC50) in experiment [1] (Table 2, Z-Gly-Pro-AMC) is greater than 6.00; in experiment [1] (Table 3) it was greater than 6.00; in experiment [2], less than 5.00; in experiment [3], 5.00 to 6.00; in experiment [4] it was less than 5.00.
For `N#C[C@@H]1CC(F)(F)CN1C(=O)CNC(=O)c1c[nH]c(=O)cc1-c1ccnc2ccccc12` [Compound 116, (S)—N-(2-(2-cyano-4,4-difluoropyrrolidin-1-yl)-2-oxoethyl)-6-oxo-4-(quinolin-4-yl)-1,6-dihydropyridine-3-carboxamide], in experiment [1], the inhibition at 1 µM is greater than 50%. The pIC50 in experiment [1] (Table 2, Z-Gly-Pro-AMC) was greater than 6.00; in experiment [1] (Table 3), greater than 6.00; in experiment [2], 5.00 to 6.00; in experiment [3], less than 5.00; in experiment [4] it was less than 5.00.
Regarding `N#C[C@@H]1CC(F)(F)CN1C(=O)CNC(=O)c1ccncc1Nc1cccnc1` [Compound 117, (S)—N-(2-(2-cyano-4,4-difluoropyrrolidin-1-yl)-2-oxoethyl)-3-(pyridin-3-ylamino)isonicotinamide], the inhibition at 1 µM in experiment [1] was greater than 50%. Further, the pIC50 in experiment [1] (Table 2, Z-Gly-Pro-AMC) is greater than 6.00; in experiment [1] (Table 3) it was greater than 6.00; in experiment [2], less than 5.00; in experiment [3] it was 5.00 to 6.00; in experiment [4] it was less than 5.00.
Regarding `N#C[C@@H]1CC(F)(F)CN1C(=O)CNC(=O)c1ccncc1NC1CCNCC1` [Compound 118, (S)—N-(2-(2-cyano-4,4-difluoropyrrolidin-1-yl)-2-oxoethyl)-3-(piperidin-4-ylamino)isonicotinamide], the inhibition at 1 µM in experiment [1] was greater than 50%. In addition, the pIC50 was greater than 6.00 in experiment [1] (Table 2, Z-Gly-Pro-AMC); greater than 6.00 in experiment [1] (Table 3); less than 5.00 in experiment [2]; less than 5.00 in experiment [3]; less than 5.00 in experiment [4].
For `N#C[C@@H]1CC(F)(F)CN1C(=O)CNC(=O)c1ccncc1Nc1ccnc2ccccc12` [Compound 119, (S)—N-(2-(2-cyano-4,4-difluoropyrrolidin-1-yl)-2-oxoethyl)-3-(quinolin-4-ylamino)isonicotinamide], the inhibition at 1 µM in experiment [1] is greater than 50%. Further, the negative-log IC50 (pIC50) is greater than 6.00 in experiment [1] (Table 2, Z-Gly-Pro-AMC); greater than 6.00 in experiment [1] (Table 3); less than 5.00 in experiment [2]; less than 5.00 in experiment [3]; less than 5.00 in experiment [4].
For `N#C[C@@H]1CC(F)(F)CN1C(=O)CNC(=O)c1ccncc1N1CCC(N)CC1` [Compound 120, (S)-3-(4-aminopiperidin-1-yl)-N-(2-(2-cyano-4,4-difluoropyrrolidin-1-yl)-2-oxoethyl)isonicotinamide 2,2,2-trifluoroacetate], the inhibition at 1 µM in experiment [1] was greater than 50%. In addition, the pIC50 in experiment [1] (Table 2, Z-Gly-Pro-AMC) was greater than 6.00; in experiment [1] (Table 3), greater than 6.00; in experiment [2], 5.00 to 6.00; in experiment [3], less than 5.00; in experiment [4], less than 5.00.
For the compound `CC(c1ccccc1)c1cnccc1C(=O)NCC(=O)N1CC(F)(F)C[C@H]1C#N` (stereo partly drawn) [Compound 123, N-(2-((S)-2-cyano-4,4-difluoropyrrolidin-1-yl)-2-oxoethyl)-3-(1-phenylethyl)isonicotinamide], in experiment [1], the inhibition at 1 µM is greater than 50%. The negative logarithm of the IC50 (pIC50) in experiment [1] (Table 2, Z-Gly-Pro-AMC) is greater than 6.00; in experiment [1] (Table 3), greater than 6.00; in experiment [2], less than 5.00; in experiment [3], 5.00 to 6.00; in experiment [4], 5.00 to 6.00; on mouse plasma DPPIV, less than 5.00.
Turning to `N#C[C@@H]1CC(F)(F)CN1C(=O)CNC(=O)c1ccncc1Oc1ccc(F)cc1` [compound 35], the inhibition at 1 µM in experiment [1] is greater than 50%. For the same compound, the pIC50 in experiment [1] (Table 2, Z-Gly-Pro-AMC) is greater than 6.00; in experiment [2], less than 5.00; in experiment [3] it was less than 5.00; in experiment [4], less than 5.00.
